Results taken from patent publication US10377783B2, “Methods and compounds for enhancing contrast in magnetic resonance imaging (MRI)” (priority 2015, dated 2019).

Tested on: male rat (Sprague Dawley Crl:SD)
Experiment: In vivo MRI imaging of 2 and 6, T1-weighted scans
Conditions: for T1-weighted MRI signal intensity, bladder: baseline (−10 min) 5085; for T1-weighted MRI signal intensity, lean muscle: baseline (−10 min) 5640; for T1-weighted MRI signal intensity, liver: baseline (−10 min) 7276; for T1-weighted MRI signal intensity, renal medulla: baseline (−10 min) 7725; for T1-weighted MRI signal intensity, renal cortex: baseline (−10 min) 8005; for T1-weighted MRI signal intensity, fat: baseline (−10 min) 14509
Protocol: Compound 1 (aq., 12.5 mM) was injected intravenously into 2 male rats (Sprague Dawley Crl:SD, 312-338 g) at a dosage of 0.02 mmol/kg following anaesthesia with 5% isoflurane. Compound 2 (aq., 6.25 mM) was injected intravenously into 1 male rat (Sprague Dawley Crl:SD, 349 g) at a dosage of 0.01 mmol/kg following anaesthesia with 5% isoflurane. Compound 6 (aq., 6.25 mM) was injected intravenously into 1 male rat (Sprague Dawley Crl:SD, 341 g) at a dosage of 0.01 mmol/kg following anaesthesia with 5% isoflurane. Anesthesia was maintained at 2-2.5% isoflurane through a nose cone for the duration of the scans. Fast-spin-echo images were collected for 45 mins. immediately post-injection. For compound 1, the DT1-weighted RARE (Rapid Acquisition Relaxation Enhancement) scans were acquired with an echo time of 10 ms, and a repetition time=respiratory cycle duration (˜1100 ms). Both T1- and T2-weighted scans were collected on compounds 2 and 6.
The in vivo contrast potential of compounds 1, 2 and 6 were studied via the collection of fast-spin-echo images for 30-45 minutes immediately following injection of an aqueous solution of each complex. The dosage chosen for 1 was 0.02 mmol/kg (c=[…]) while the dosage chosen for 2 and 6 was 0.01 mmol/kg (c=6.25 mM). Predominantly T1-weighted scans with some T2-weighting were performed on two rats injected with 1.
Both T1- and T2-weighted scans were performed on two rats injected with 2 and its dimeric analogue 6.

[1] = 1 min after injection of 2, 0.01 mmol/kg iv
[2] = 15 min after injection of 2, 0.01 mmol/kg iv
[3] = 30 min after injection of 2, 0.01 mmol/kg iv
[4] = 45 min after injection of 2, 0.01 mmol/kg iv
[5] = injection of 2, 0.01 mmol/kg iv, first 45 min

With `CC1=NCCOCCOCCN=C(C)c2cccc1n2.O.O.[Cl-].[Cl-].[Mn+2]` [Compound 2, [MnL2Cl2].2H2O] the “excretion (summary)” value (0.01 mmol/kg iv) was “rapid excretion”, the “T1-weighted MRI signal intensity, bladder” value [1] was 5155 arbitrary units of voxel intensity and the “T1-weighted MRI signal intensity, lean muscle” value [1] was 5841 arbitrary units of voxel intensity. For the same compound, the “T1-weighted MRI signal intensity, liver” value [1] was 7568 arbitrary units of voxel intensity, the “T1-weighted MRI signal intensity, renal medulla” value [1] was 9169 arbitrary units of voxel intensity and the “T1-weighted MRI signal intensity, renal cortex” value [1] was 9368 arbitrary units of voxel intensity. The “T1-weighted MRI signal intensity, fat” value [1] was 15671 arbitrary units of voxel intensity, the “T1-weighted MRI signal intensity, bladder” value [2] was 16182 arbitrary units of voxel intensity and the “T1-weighted MRI signal intensity, lean muscle” value [2] was 5696 arbitrary units of voxel intensity. The “T1-weighted MRI signal intensity, liver” value [2] was 7385 arbitrary units of voxel intensity, the “T1-weighted MRI signal intensity, renal medulla” value [2] was 8472 arbitrary units of voxel intensity and the “T1-weighted MRI signal intensity, renal cortex” value [2] was 10144 arbitrary units of voxel intensity. The “T1-weighted MRI signal intensity, fat” value [2] was 15845 arbitrary units of voxel intensity, the “T1-weighted MRI signal intensity, bladder” value [3] was 11996 arbitrary units of voxel intensity and the “T1-weighted MRI signal intensity, lean muscle” value [3] was 5569 arbitrary units of voxel intensity. For the same compound, the “T1-weighted MRI signal intensity, liver” value [3] was 7812 arbitrary units of voxel intensity, the “T1-weighted MRI signal intensity, renal medulla” value [3] was 7969 arbitrary units of voxel intensity and the “T1-weighted MRI signal intensity, renal cortex” value [3] was 10702 arbitrary units of voxel intensity. For the same compound, the “T1-weighted MRI signal intensity, fat” value [3] was 15745 arbitrary units of voxel intensity, the “T1-weighted MRI signal intensity, bladder” value [4] was 13104 arbitrary units of voxel intensity and the “T1-weighted MRI signal intensity, lean muscle” value [4] was 5574 arbitrary units of voxel intensity. The “T1-weighted MRI signal intensity, liver” value [4] was 7683 arbitrary units of voxel intensity, the “T1-weighted MRI signal intensity, renal medulla” value [4] was 8615 arbitrary units of voxel intensity and the “T1-weighted MRI signal intensity, renal cortex” value [4] was 11485 arbitrary units of voxel intensity. The “T1-weighted MRI signal intensity, fat” value [4] was 15860 arbitrary units of voxel intensity, the “Max. intensity change, T1-weighted, bladder” value [5] was 218% and the “Max. intensity change, T1-weighted, fat” value [5] was 9%. For the same compound, the “Max. intensity change, T1-weighted, lean muscle” value [5] was 3%, the “Max. intensity change, T1-weighted, liver” value [5] was 7% and the “Max. intensity change, T1-weighted, renal cortex” value [5] was 43%. For the same compound, the “Max. intensity change, T1-weighted, renal medulla” value [5] was 19% and the “effect on T1-weighted signal intensity” value (renal cortex, liver and lean muscle, 0.01 mmol/kg iv) was “causes an enhancement in the renal cortex and has negligible effect on liver and lean muscle tissue”.
